Experimental data from ChEMBL document CHEMBL1141812, “bis-5-Alkylresorcinols from Panopsis rubescens that inhibit DNA polymerase beta” (J Nat Prod, 1999).

How the values were obtained:
[1] = biological target: DNA polymerase beta (Rattus norvegicus) (UniProt P06766); experiment: Inhibition of rat DNA polymerase beta assessed as [3H]TTP incorporation at 50 ug/mL after 60 mins by scintillation counting
[2] = biological target: DNA polymerase beta (Rattus norvegicus) (UniProt P06766); experiment: Inhibition of rat DNA polymerase beta assessed as [3H]TTP incorporation at 10 ug/mL after 60 mins by scintillation counting
[3] = biological target: DNA polymerase beta (Rattus norvegicus, UniProt P06766); experiment: Inhibition of rat DNA polymerase beta assessed as [3H]TTP incorporation after 60 mins by scintillation counting in presence of bovine serum albumin

Row | SMILES | inhibition [1] [%] | inhibition [2] [%] | IC50 [3] [µM]
1 | Oc1cc(O)cc(CCC/C=C\CCCCCCCCCc2cc(O)cc(O)c2)c1 | 98 | 51 | 7.5
2 | Oc1cc(O)cc(CCCCCC/C=C\CCCCCCc2cc(O)cc(O)c2)c1 | 92 | 44 | 6.5
3 | Oc1cc(O)cc(CCCCCCCCCCCCCCc2cc(O)cc(O)c2)c1 [BISNORSTRIATOL] | 79 | 50 | 5.8
